Experimental data published in patent US20240043404A1 (AbbVie Inc., priority 2009, published 2024).

Tested on: RS4;11 cells
Test: RS4;11 cell viability assay (CellTiter Glo);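 further: acute lymphoblastic leukemia line RS4,11, EC50 derived from percentage of viable cells after treatment relative to untreated controls, cell killing taken as a measure of Bcl-2 inhibition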
Assay type: cell-based, human
Details: Homo sapiens, RS4-11, 48 h, 50,000 cells per well, 10% human serum, 48 hours; read-out: RS4; 11 EC50 Values
Procedure: The acute lymphoblastic leukemia (ALL) cell line RS4;11 was used as the primary human cell line to assess the cellular activity of Bcl-2 selective agents in vitro and their efficacy in vivo.
Cell cytotoxicity EC50 values were assessed using CellTiter Glo (Promega) according to the manufacturer's recommendations. The EC50 values were determined as a percentage of viable cells following treatment compared to the untreated control cells.

SMILES | EC50 [nM]
CC1(C)CCC(CN2CCN(c3ccc(C(=O)NS(=O)(=O)c4cnc(OCC5CCOCC5)c(Cl)c4)c(Oc4cnc5[nH]ccc5c4)c3)CC2)=C(c2ccc(Cl)cc2)C1 [Example 40, 4-(4-{[2-(4-chlorophenyl)-4,4-dimethylcyclohex-1-en-1-yl]methyl}piperazin-1-yl)-N-{[5-chloro-6-(tetrahydro-2H-pyran-4-ylmethoxy)pyridin-3-yl]sulfonyl}-2-(1H-pyrrolo[2,3-b]pyridin-5-yloxy)benzamide] | 99.7
CC1(C)CCC(CN2CCN(c3ccc(C(=O)NS(=O)(=O)c4ccc(NCC5CCN(C6CC6)CC5)c([N+](=O)[O-])c4)c(Oc4cnc5[nH]ccc5c4)c3)CC2)=C(c2ccc(Cl)cc2)C1 [Example 164, 4-(4-{[2-(4-chlorophenyl)-4,4-dimethylcyclohex-1-en-1-yl]methyl}piperazin-1-yl)-N-[(4-{[(1-cyclopropylpiperidin-4-yl)methyl]amino}-3-nitrophenyl)sulfonyl]-2-(1H-pyrrolo[2,3-b]pyridin-5-yloxy)benzamide] | 14.8
CC1(C)CCC(CN2CCN(c3ccc(C(=O)NS(=O)(=O)c4ccc(N[C@H]5CCN(C6CCOC(C)(C)C6)C5)c([N+](=O)[O-])c4)c(Oc4cnc5[nH]ccc5c4)c3)CC2)=C(c2ccc(Cl)cc2)C1 (stereo partly drawn) [Example 133, 4-(4-{[2-(4-chlorophenyl)-4,4-dimethylcyclohex-1-en-1-yl]methyl}piperazin-1-yl)-N-[(4-{[(3S)-1-(2,2-dimethyltetrahydro-2H-pyran-4-yl)pyrrolidin-3-yl]amino}-3-nitrophenyl)sulfonyl]-2-(1H-pyrrolo[2,3-b]pyridin-5-yloxy)benzamide] | 31.9
CC1(C)CCC(CN2CCN(c3ccc(C(=O)NS(=O)(=O)c4ccc(NC5CCN(C(CF)CF)CC5)c([N+](=O)[O-])c4)c(Oc4cnc5[nH]ccc5c4)c3)CC2)=C(c2ccc(Cl)cc2)C1 [Example 95, 4-(4-{[2-(4-chlorophenyl)-4,4-dimethylcyclohex-1-en-1-yl]methyl}piperazin-1-yl)-N-{[4-({1-[2-fluoro-1-(fluoromethyl)ethyl]piperidin-4-yl}amino)-3-nitrophenyl]sulfonyl}-2-(1H-pyrrolo[2,3-b]pyridin-5-yloxy)benzamide] | 29.5
CC1(C)CCC(CN2CCN(c3ccc(C(=O)NS(=O)(=O)c4ccc(NC5CCN(C6CCOCC6)CC5)c([N+](=O)[O-])c4)c(Oc4cnc5[nH]ccc5c4)c3)CC2)=C(c2ccc(Cl)cc2)C1 [Example 3, 4-(4-{[2-(4-chlorophenyl)-4,4-dimethylcyclohex-1-en-1-yl]methyl}piperazin-1-yl)-N-({3-nitro-4-[(1-tetrahydro-2H-pyran-4-ylpiperidin-4-yl)amino]phenyl}sulfonyl)-2-(1H-pyrrolo[2,3-b]pyridin-5-yloxy)benzamide] | 14.2
CC1(C)CCC(CN2CCN(c3ccc(C(=O)NS(=O)(=O)c4ccc(N[C@@H]5CCN(S(C)(=O)=O)C5)c([N+](=O)[O-])c4)c(Oc4cnc5[nH]ccc5c4)c3)CC2)=C(c2ccc(Cl)cc2)C1 [Example 149, 4-(4-{[2-(4-chlorophenyl)-4,4-dimethylcyclohex-1-en-1-yl]methyl}piperazin-1-yl)-N-[(4-{[(3R)-1-(methylsulfonyl)pyrrolidin-3-yl]amino}-3-nitrophenyl)sulfonyl]-2-(1H-pyrrolo[2,3-b]pyridin-5-yloxy)benzamide] | 13.5

Next, values leading:

EC50 [nM] | SMILES
32.3 | CC1(C)CCC(CN2CCN(c3ccc(C(=O)NS(=O)(=O)c4ccc(O[C@@H]5CCN(C(CF)CF)C5)c([N+](=O)[O-])c4)c(Oc4cnc5[nH]ccc5c4)c3)CC2)=C(c2ccc(Cl)cc2)C1 [Example 235, 4-(4-{[2-(4-chlorophenyl)-4,4-dimethylcyclohex-1-en-1-yl]methyl}piperazin-1-yl)-N-[(4-{[(3R)-1-(1,3-difluoropropan-2-yl)pyrrolidin-3-yl]oxy}-3-nitrophenyl)sulfonyl]-2-(1H-pyrrolo[2,3-b]pyridin-5-yloxy)benzamide]
3.47 | CC1(C)CCC(CN2CCN(c3ccc(C(=O)NS(=O)(=O)c4ccc(NCC5CN(C(CF)CF)CCO5)c([N+](=O)[O-])c4)c(Oc4cnc5[nH]ccc5c4)c3)CC2)=C(c2ccc(Cl)cc2)C1 (centres unmarked) [Example 252, 4-(4-{[2-(4-chlorophenyl)-4,4-dimethylcyclohex-1-en-1-yl]methyl}piperazin-1-yl)-N-{[4-({[4-(1,3-difluoropropan-2-yl)morpholin-2-yl]methyl}amino)-3-nitrophenyl]sulfonyl}-2-(1H-pyrrolo[2,3-b]pyridin-5-yloxy)benzamide]
114 | CC1(C)CCC(CN2CCN(c3ccc(C(=O)NS(=O)(=O)c4ccc(NCC5CN(C6COC6)CCO5)c(S(=O)(=O)C(F)(F)F)c4)c(Oc4cnc5[nH]ccc5c4)c3)CC2)=C(c2ccc(Cl)cc2)C1 (centres unmarked) [Example 241, 4-(4-{[2-(4-chlorophenyl)-4,4-dimethylcyclohex-1-en-1-yl]methyl}piperazin-1-yl)-N-({4-({[4-(oxetan-3-yl)morpholin-2-yl]methyl}amino)-3-[(trifluoromethyl)sulfonyl]phenyl}sulfonyl)-2-(1H-pyrrolo[2,3-b]pyridin-5-yloxy)benzamide]
> 1000 | CC1(C)CCC(CN2CCN(c3ccc(C(=O)NS(=O)(=O)c4ccc(NCC5CCOCC5)c(S(F)(F)(F)(F)F)c4)c(Oc4cnc5[nH]ccc5c4)c3)CC2)=C(c2ccc(Cl)cc2)C1 [Example 233, 4-(4-{[2-(4-chlorophenyl)-4,4-dimethylcyclohex-1-en-1-yl]methyl}piperazin-1-yl)-N-({3-(pentafluoro-lambda˜6˜-sulfanyl)-4-[(tetrahydro-2H-pyran-4-ylmethyl)amino]phenyl}sulfonyl)-2-(1H-pyrrolo[2,3-b]pyridin-5-yloxy)benzamide]
669 | CC1(C)CCC(CN2CCN(c3ccc(C(=O)NS(=O)(=O)c4cnc(OCCC5CCCO5)c(Cl)c4)c(Oc4cnc5[nH]ccc5c4)c3)CC2)=C(c2ccc(Cl)cc2)C1 (centres unmarked) [Example 289, 4-(4-{[2-(4-chlorophenyl)-4,4-dimethylcyclohex-1-en-1-yl]methyl}piperazin-1-yl)-N-({5-chloro-6-[2-(tetrahydrofuran-2-yl)ethoxy]pyridin-3-yl}sulfonyl)-2-(1H-pyrrolo[2,3-b]pyridin-5-yloxy)benzamide]
94.8 | CC1(C)CCC(CN2CCN(c3ccc(C(=O)NS(=O)(=O)c4ccc(OCC5(C)CCOCC5)c([N+](=O)[O-])c4)c(Oc4cnc5[nH]ccc5c4)c3)CC2)=C(c2ccc(Cl)cc2)C1 [Example 221, 4-(4-{[2-(4-chlorophenyl)-4,4-dimethylcyclohex-1-en-1-yl]methyl}piperazin-1-yl)-N-({4-[(4-methyltetrahydro-2H-pyran-4-yl)methoxy]-3-nitrophenyl}sulfonyl)-2-(1H-pyrrolo[2,3-b]pyridin-5-yloxy)benzamide]
2.41 | CC1(C)CCC(CN2CCN(c3ccc(C(=O)NS(=O)(=O)c4ccc(OCC5(F)CCN(C6CCOCC6)CC5)c([N+](=O)[O-])c4)c(Oc4cnc5[nH]ccc5c4)c3)CC2)=C(c2ccc(Cl)cc2)C1 [Example 192, 4-(4-{[2-(4-chlorophenyl)-4,4-dimethylcyclohex-1-en-1-yl]methyl}piperazin-1-yl)-N-({4-[(4-fluoro-1-tetrahydro-2H-pyran-4-ylpiperidin-4-yl)methoxy]-3-nitrophenyl}sulfonyl)-2-(1H-pyrrolo[2,3-b]pyridin-5-yloxy)benzamide]

Same assay, conditions: Homo sapiens, RS4-11, Table 5, direct comparison Z=N with corresponding analogs Z=C; read-out: RS4; 11 EC50

SMILES | EC50 [nM]
CC1(C)CCC(CN2CCN(c3ccc(C(=O)NS(=O)(=O)c4ccc(NC5CCN(C6CCOCC6)CC5)c([N+](=O)[O-])c4)c(Oc4cnc5[nH]ccc5c4)c3)CC2)=C(c2ccc(Cl)cc2)C1 [Example 3, 4-(4-{[2-(4-chlorophenyl)-4,4-dimethylcyclohex-1-en-1-yl]methyl}piperazin-1-yl)-N-({3-nitro-4-[(1-tetrahydro-2H-pyran-4-ylpiperidin-4-yl)amino]phenyl}sulfonyl)-2-(1H-pyrrolo[2,3-b]pyridin-5-yloxy)benzamide] | 14.2
